pIC50: −log10 of the molar value. Like-named read-outs stand apart in the source and are kept apart here.
Assays:
22Rv1 cells = assay: Prostate cancer cell growth assay, single compound (CellTiter-Glo); assay type: cell-based; conditions: Homo sapiens, 120 h, 22Rv1 cell growth, 5 days incubation
Experimental: (§1) Growth assays were done in triplicate and performed as follows.
(§2) 1. On Day 1, LNCaP and 22Rv1 cells were seeded in wells of a 96-well plate at a density of 3000 cells/well in 100 μL of culture media (RPMI 1640 medium supplemented with 10% fetal bovine serum and 1% Penicillin/Streptomycin). Cells were incubated overnight at 37° C. in a humidified atmosphere with 5% CO2.
(§3) 2. On Day 2, for single compound treatment studies, each compound was serially diluted 1:3 in DMSO to create a 9-point titration. A 3 μL aliquot of each dilution was added to 747 μL culture media and 100 μL were added to each triplicate well. Wells containing 0.2% DMSO-treated cells served as uninhibited controls.
(§4) In all studies, cells were incubated at 37° C. in a humidified atmosphere with 5% CO2 for 5 days.
(§5) 3. On Day 7, cell cultures were brought to room temperature for 30 minutes and 50 μL of reconstituted CellTiter-Glo Reagent was added to each well. Plates were shaken at room temperature for approximately 15 minutes Luminescent signal was quantified on a microplate reader.
(§6) 1. For single compound treatment study, all responses were expressed as % inhibition (the percentage inhibition compared to the average response of the DMSO-treated control wells). The data were analyzed by using nonlinear regression to generate IC50 values in Prism (GraphPad, La Jolla, Calif.). 95% confident interval (CI95) of the IC50 values were also calculated in Prism.

LNCaP cells = assay: as above; assay type: cell-based; conditions: Homo sapiens, 120 h, 5 days incubation
Experimental: as §1, §2, §3, §4, §5, §6

[1] = n=3, read-out: IC50 (geometric mean)

| pIC50 (22Rv1 cells; [1]) | pIC50 (LNCaP cells; [1]) | pIC50 (22Rv1 cells; read-out: IC50) | pIC50 (LNCaP cells; read-out: IC50) | SMILES |
| --- | --- | --- | --- | --- |
| 4.38 | 5.46 | – | – | CC(=O)O[C@H]1CC[C@@]2(C)C(=CC[C@@H]3[C@@H]2CC[C@]2(C)C(c4cccnc4)=CC[C@@H]32)C1 [Abiraterone acetate, abiraterone acetate, reference compound] |
| 7.47 | 7.37 | 7.47 | 7.37 | Cc1noc(C)c1-c1cnc2c(-c3ccc(C(=O)O)cc3)cn(C(C)(c3ccccn3)c3ccccn3)c2c1 [Compound I, 4-(1-(1,1-di(pyridin-2-yl)ethyl)-6-(3,5-dimethylisoxazol-4-yl)-1H-pyrrolo[3,2-b]pyridin-3-yl)benzoic acid] |

Source: patent publication US11628176B2, “Combinational drug therapies” (Opna Bio SA, priority 2020, dated 2023)
